System: 292921-168-R-J2-PDC KRAS tumor spheroid viability
Assay: Anticancer human tumor 292921-168-R-J2-PDC patient-derived pancreatic carcinoma cell line growth inhibition [KRAS2]
Conditions: spheroids with HUVEC and MSC; for IC50: curve of first compound; for viability, T/C: stronger effect = lower value
How it was run: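 Combination screen of spheroid viability in tumor-cell co-cultures with endothelial (HUVEC) and mesenchymal stem cell stroma. Each agent was tested in half-log dilutions, topping at clinical Cmax or at 10 microM without a known Cmax.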

[1] = second compound 0.1 µM, first compound 0.0316 µM
[2] = second compound 0.1 µM, first compound 0.1 µM
[3] = second compound 0.1 µM, first compound 0.316 µM
[4] = second compound 0.1 µM, first compound 1 µM
[5] = second compound 0.1 µM, first compound 3.16 µM
[6] = second compound 0.1 µM, first compound 10 µM
[7] = second compound 0.316 µM, first compound 0.0316 µM
[8] = second compound 0.316 µM, first compound 0.1 µM
[9] = second compound 0.316 µM, first compound 0.316 µM
[10] = second compound 0.316 µM, first compound 1 µM
[11] = second compound 0.316 µM, first compound 3.16 µM
[12] = second compound 0.316 µM, first compound 10 µM
[13] = second compound 1 µM, first compound 0.0316 µM
[14] = second compound 1 µM, first compound 0.1 µM
[15] = second compound 1 µM, first compound 0.316 µM
[16] = second compound 1 µM, first compound 1 µM
[17] = second compound 1 µM, first compound 3.16 µM
[18] = second compound 1 µM, first compound 10 µM
[19] = second compound 3.16 µM, first compound 0.0316 µM
[20] = second compound 3.16 µM, first compound 0.1 µM
[21] = second compound 3.16 µM, first compound 0.316 µM
[22] = second compound 3.16 µM, first compound 1 µM
[23] = second compound 3.16 µM, first compound 3.16 µM
[24] = second compound 3.16 µM, first compound 10 µM
[25] = second compound 10 µM, first compound 0.0316 µM
[26] = second compound 10 µM, first compound 0.1 µM
[27] = second compound 10 µM, first compound 0.316 µM
[28] = second compound 10 µM, first compound 1 µM
[29] = second compound 10 µM, first compound 3.16 µM
[30] = second compound 10 µM, first compound 10 µM
[31] = second compound 0.1 µM, first compound 0.01 µM
[32] = second compound 0.316 µM, first compound 0.01 µM
[33] = second compound 1 µM, first compound 0.01 µM
[34] = second compound 3.16 µM, first compound 0.01 µM
[35] = second compound 10 µM, first compound 0.01 µM
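Note: drug exposure lasted seven days after spheroids formed for three days.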
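Throughout, for viability, T/C: percent of DMSO vehicle control viability which is 100%.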

| SMILES | IC50 (second compound 0.1 µM) | IC50 (second compound 0.316 µM) | IC50 (second compound 1 µM) | IC50 (second compound 3.16 µM) | IC50 (second compound 10 µM) | viability, T/C [1] | viability, T/C [2] | viability, T/C [3] | viability, T/C [4] | viability, T/C [5] | viability, T/C [7] | viability, T/C [8] | viability, T/C [9] | viability, T/C [10] | viability, T/C [13] | viability, T/C [14] | viability, T/C [19] | viability, T/C [20] | viability, T/C [25] | viability, T/C [26] | further results |
| --- | --- | --- | --- | --- | --- | --- | --- | --- | --- | --- | --- | --- | --- | --- | --- | --- | --- | --- | --- | --- | --- |
| CC1OCC2(CCN(c3cnc(Sc4ccnc(N)c4Cl)c(N)n3)CC2)C1N (stereo not given) + CNCc1ccccc1-c1csc(C(C)Nc2nc(C)nc3cc(OC)c(OC)cc23)c1 | 296 nM | 203 nM | 43.5 nM | < 31.6 nM | < 31.6 nM | 77% | 61.6% | 50% | 37.5% | 34.6% | 77.4% | 56.2% | 44.7% | 37.4% | 52.5% | 43.2% | 0.1% | 0.09% | 0.09% | 0.19% | viability, T/C [6]: 26.7%; viability, T/C [11]: 31.8%; viability, T/C [12]: 24.8%; viability, T/C [15]: 37.8%; viability, T/C [16]: 29.3%; viability, T/C [17]: 26%; viability, T/C [18]: 22.2%; viability, T/C [21]: 0.07%; viability, T/C [22]: 0.06%; viability, T/C [23]: 0.05%; viability, T/C [24]: 0.33%; viability, T/C [27]: 0.08%; viability, T/C [28]: 0.09%; viability, T/C [29]: 0.09%; viability, T/C [30]: 0.15% |
| Cn1nccc1Nc1nccc(-c2cc3c(s2)C(C)(C)N(CCN2CCOCC2)C3=O)n1 + CNCc1ccccc1-c1csc(C(C)Nc2nc(C)nc3cc(OC)c(OC)cc23)c1 | 83.9 nM | 66.6 nM | < 31.6 nM | < 31.6 nM | < 31.6 nM | 73.9% | 45.7% | 19% | 12.3% | 10.2% | 68.8% | 39.7% | 18.6% | 10.9% | 47.1% | 30.1% | 0.09% | 0.29% | 0.08% | 0.09% | viability, T/C [6]: 10.2%; viability, T/C [11]: 9.74%; viability, T/C [12]: 10.6%; viability, T/C [15]: 14.5%; viability, T/C [16]: 11.1%; viability, T/C [17]: 8.76%; viability, T/C [18]: 6.3%; viability, T/C [21]: 0.03%; viability, T/C [22]: 0.03%; viability, T/C [23]: 0.03%; viability, T/C [24]: 0.11%; viability, T/C [27]: 0.1%; viability, T/C [28]: 0.09%; viability, T/C [29]: 0.1%; viability, T/C [30]: 0.15% |
| CC(=O)OC12COC1CC(O)C1(C)C(=O)C(O)C3=C(C)C(OC(=O)C(O)C(NC(=O)OC(C)(C)C)c4ccccc4)CC(O)(C(OC(=O)c4ccccc4)C21)C3(C)C (stereo not given) + COc1cc2nc(C)nc(NC(C)c3cc(N)cc(C(F)(F)F)c3)c2cc1OC1CCOC1 | < 10 nM | < 10 nM | < 10 nM | < 10 nM | < 10 nM | 15.2% | 10.7% | 12.1% | 14% | 19% | 14.7% | 10.9% | 12.6% | 14.7% | 16.2% | 13.6% | 13.4% | 11.2% | 13.3% | 14% | viability, T/C [31]: 13.7%; viability, T/C [32]: 13.7%; viability, T/C [11]: 18.8%; viability, T/C [33]: 13.3%; viability, T/C [15]: 10.9%; viability, T/C [16]: 16.1%; viability, T/C [17]: 18.9%; viability, T/C [34]: 12.1%; viability, T/C [21]: 11.4%; viability, T/C [22]: 14.1%; viability, T/C [23]: 18.7%; viability, T/C [35]: 13.5%; viability, T/C [27]: 12.8%; viability, T/C [28]: 11.9%; viability, T/C [29]: 13.2% |
| CN(C)C/C=C/C(=O)Nc1cc2c(Nc3ccc(F)c(Cl)c3)ncnc2cc1O[C@H]1CCOC1 + COc1cc2nc(C)nc(NC(C)c3cc(N)cc(C(F)(F)F)c3)c2cc1OC1CCOC1 | > 100 nM | > 100 nM | > 100 nM | 30.4 nM | 1.18 nM | 85.4% | 74.5% | – | – | – | 66.1% | 58.1% | – | – | 84.9% | 75.2% | 52.5% | 44.5% | 45.6% | 47.8% | viability, T/C (second compound 0.1 µM, first compound 0.000316 µM): 94%; viability, T/C (second compound 0.1 µM, first compound 0.001 µM): 91.5%; viability, T/C (second compound 0.1 µM, first compound 0.00316 µM): 84.8%; viability, T/C [31]: 88.7%; viability, T/C (second compound 0.316 µM, first compound 0.000316 µM): 87.5%; viability, T/C (second compound 0.316 µM, first compound 0.001 µM): 74.7%; viability, T/C (second compound 0.316 µM, first compound 0.00316 µM): 72.7%; viability, T/C [32]: 73.5%; viability, T/C (second compound 1 µM, first compound 0.000316 µM): 87%; viability, T/C (second compound 1 µM, first compound 0.001 µM): 82.2%; viability, T/C (second compound 1 µM, first compound 0.00316 µM): 83.7%; viability, T/C [33]: 86.8%; viability, T/C (second compound 3.16 µM, first compound 0.000316 µM): 62.8%; viability, T/C (second compound 3.16 µM, first compound 0.001 µM): 46.8%; viability, T/C (second compound 3.16 µM, first compound 0.00316 µM): 57%; viability, T/C [34]: 54.9%; viability, T/C (second compound 10 µM, first compound 0.000316 µM): 50%; viability, T/C (second compound 10 µM, first compound 0.001 µM): 52.2%; viability, T/C (second compound 10 µM, first compound 0.00316 µM): 50.7%; viability, T/C [35]: 45.5% |
| O=C(c1cc(Cc2n[nH]c(=O)c3ccccc23)ccc1F)N1CCN(C(=O)C2CC2)CC1 + COc1cc2nc(C)nc(NC(C)c3cc(N)cc(C(F)(F)F)c3)c2cc1OC1CCOC1 | > 10000 nM | 9620 nM | 9770 nM | 6440 nM | 9860 nM | 111% | 119% | 108% | 113% | 99.8% | 111% | 105% | 98.2% | 102% | 130% | 116% | 86.7% | 82.5% | 83.8% | 84.3% | viability, T/C [6]: 52.1%; viability, T/C [11]: 92.1%; viability, T/C [12]: 48%; viability, T/C [15]: 118%; viability, T/C [16]: 119%; viability, T/C [17]: 88.7%; viability, T/C [18]: 49.2%; viability, T/C [21]: 76%; viability, T/C [22]: 75.7%; viability, T/C [23]: 63.2%; viability, T/C [24]: 41.6%; viability, T/C [27]: 77.9%; viability, T/C [28]: 73.5%; viability, T/C [29]: 85%; viability, T/C [30]: 49.8% |

From PubChem BioAssay AID1963870 (Molecular Pharmacology Branch, DTP, NCI, 2024)
